Values after ≈ are worked out from the molar mass of the structure shown. Where two headings read alike, the source gives them in different places.
Key:
Assay in all cases: MIC, Steers agar-dilution method, Mueller-Hinton
Format in all cases: cell-based
[1] = test system: Escherichia coli R 1513; details: R1513, MuellerHinton broth pH 7.2
Text: (§1) Illustrated below is a table showing the minimal inhibitory concentrations (MIC's) of Kanamycin A together with those of one of the trisaccharides synthesized (Example I) against a variety of Gram-positive and Gram-negative bacteria as obtained by the Steers agar-dilution method with Mueller-Hinton agar medium.
(§2) In vitro activity of Kanamycin A and compound (Example LI). MIC's in
(§3) MuellerHinton broth pH 7.2.

[2] = test system: Micrococcus pyogenes aureus 6539 P; details: Staphylococcus aureus, AUREUS6539P
Text: as §1, §2, §3

[3] = test system: Proteus mirabilis
Text: as §1, §2, §3

[4] = test system: Proteus morganii; details: Morganella morganii
Text: as §1, §2, §3

[5] = test system: Proteus rettgeri; details: Providencia rettgeri
Text: as §1, §2, §3

[6] = test system: Pseudomonas aeruginosa D 15
Text: as §1, §2, §3

[7] = test system: Pseudomonas aeruginosa I.A.
Text: as §1, §2, §3

[8] = test system: Pseudomonas aeruginosa s.p.
Text: as §1, §2, §3

[9] = test system: Salmonella sui-pestifer
Text: as §1, §2, §3

[10] = test system: Salmonella tiphymurium
Text: as §1, §2, §3

[11] = test system: Staphylococcus pyogenes Smith A; details: Staphylococcus aureus
Text: as §1, §2, §3

Q: Which results are given for `NCC1OC(OC2C(N)CC(N)C(OC3OC(CO)C(O)C(N)C3O)C2O)C(O)C(O)C1O` (stereo not shown) [Kanamycin A]?
A: MIC [1]: 100 µg/mL (≈ 206 µM); MIC ([2]; pH 7.2): 0.8 µg/mL (≈ 1.65 µM); MIC ([3]; pH 7.2): 2 µg/mL (≈ 4.13 µM); MIC ([4]; pH 7.2): 0.8 µg/mL (≈ 1.65 µM); MIC ([5]; pH 7.2): 0.4 µg/mL (≈ 0.826 µM); MIC ([6]; Pseudomonas aeruginosa, D15, pH 7.2): 25 µg/mL (≈ 51.6 µM); MIC ([7]; Pseudomonas aeruginosa, pH 7.2): 100 µg/mL (≈ 206 µM); MIC ([8]; Pseudomonas aeruginosa, pH 7.2): 100 µg/mL (≈ 206 µM); MIC ([9]; Salmonella, pH 7.2): 32 µg/mL (≈ 66 µM); MIC ([10]; Salmonella, pH 7.2): 100 µg/mL (≈ 206 µM); MIC ([11]; pH 7.2): 0.8 µg/mL (≈ 1.65 µM)

Q: For `NCC1OC(OC2CCC(OC3C(N)CC(N)C(O)C3O)OC2CN)CCC1O` (stereo not drawn) [Example LI, 4-O-[4-O-(6-amino-2,3,6-trideoxy-α-O-erythro-hexopyranosyl)-6-amino-2,3,6-trideoxy-αO-erythro-hexopyranosyl]-2-deoxystreptamine disulphate], which MIC [1] is on record?
A: 32 µg/mL

Q: And the MIC ([2]; Micrococcus pyogenes aureus 6539 P, MuellerHinton broth pH 7.2, read-out: MIC)?
A: 0.4 µg/mL

Q: What about the MIC ([3]; MuellerHinton broth pH 7.2, read-out: MIC) of the same compound?
A: 0.4 µg/mL

Q: And the MIC ([4]; Proteus morganii, MuellerHinton broth pH 7.2, read-out: MIC)?
A: 0.2 µg/mL

Q: What about the MIC ([5]; Proteus rettgeri, MuellerHinton broth pH 7.2, read-out: MIC) of the same compound?
A: 0.2 µg/mL

Q: And the MIC ([6]; D15, Pseudomonas aeruginosa D 15, MuellerHinton broth pH 7.2, read-out: MIC)?
A: 8 µg/mL

Q: What about the MIC ([7]; Pseudomonas aeruginosa I.A., MuellerHinton broth pH 7.2, read-out: MIC) of the same compound?
A: 32 µg/mL

Q: What about the MIC ([8]; Pseudomonas aeruginosa s.p., MuellerHinton broth pH 7.2, read-out: MIC) of the same compound?
A: 16 µg/mL

Q: What about the MIC ([9]; Salmonella sui-pestifer, MuellerHinton broth pH 7.2, read-out: MIC) of the same compound?
A: 32 µg/mL

Q: And the MIC ([10]; Salmonella tiphymurium, MuellerHinton broth pH 7.2, read-out: MIC)?
A: 32 µg/mL

Q: And the MIC ([11]; Staphylococcus pyogenes Smith A, MuellerHinton broth pH 7.2, read-out: MIC)?
A: 0.4 µg/mL
